Source: ChEMBL document CHEMBL1139037, “New Gly-Pro-Glu (GPE) analogues: expedite solid-phase synthesis and biological activity” (Bioorg Med Chem Lett, 2006)
Non-standard residues stand in square brackets, D forms with d. Residues, ends and D or L forms follow the SMILES beside them. Oic = O=C(O)[C@@H]1C[C@@H]2CCCC[C@@H]2N1; Hyp = O=C(O)[C@@H]1C[C@@H](O)CN1; Pip = O=C(O)[C@@H]1CCCCN1; Ac6c = NC1(C(=O)O)CCCCC1; Nle = CCCC[C@H](N)C(=O)O; Aze = O=C(O)[C@@H]1CCN1; Ac3c = NC1(C(=O)O)CC1

Target: Glutamate NMDA receptor (Rattus norvegicus) (UniProt P35439+Q00959+Q00960+Q00961+Q62645+Q8VHN2+Q9R1M7)
Assay: Neuroprotective activity in rat hippocampal neurons at 100 uM
Assay type: functional, tissue-based
Settings: Hippocampus

Activity | SMILES
27% | NCC(=O)NC1(C(=O)N[C@@H](CCC(=O)O)C(=O)O)CC1 (H-Gly-[Ac3c]-Glu-OH)
27% | NCC(=O)NC1(C(=O)N[C@@H](CCC(=O)O)C(=O)O)CCCCC1 (H-Gly-[Ac6c]-Glu-OH)
27% | NCC(=O)N1CC[C@H]1C(=O)N[C@@H](CCC(=O)O)C(=O)O (H-Gly-[Aze]-Glu-OH)

Target: Glutamate NMDA receptor
Assay: Displacement of L-[3H]glutamate from glutamate receptor in rat brain synaptic membrane
Assay type: cell membranes
Settings: not given

Ki | SMILES
15.5 µM | NCC(=O)N1C[C@@H](N)C[C@H]1C(=O)N[C@@H](CCC(=O)O)C(=O)O
5.4 µM | C[C@@H](N)C(=O)N1CCC[C@H]1C(=O)N[C@@H](CCC(=O)O)C(=O)O
2.66 µM | C[C@H](N)C(=O)N1CCC[C@H]1C(=O)N[C@@H](CCC(=O)O)C(=O)O
41.3 µM | N[C@@H](CC(=O)O)C(=O)N1CCC[C@H]1C(=O)N[C@@H](CCC(=O)O)C(=O)O (H-Asp-Pro-Glu-OH)
> 100 µM | NCC(=O)NC1(C(=O)N[C@@H](CCC(=O)O)C(=O)O)CC1 (H-Gly-[Ac3c]-Glu-OH)
> 100 µM | NCC(=O)NC1(C(=O)N[C@@H](CCC(=O)O)C(=O)O)CCCCC1 (H-Gly-[Ac6c]-Glu-OH)
> 100 µM | NCC(=O)N1CC[C@H]1C(=O)N[C@@H](CCC(=O)O)C(=O)O (H-Gly-[Aze]-Glu-OH)
9.24 µM | NCC(=O)N1C[C@H](O)C[C@H]1C(=O)N[C@@H](CCC(=O)O)C(=O)O (H-Gly-[Hyp]-Glu-OH)
22.4 µM | NCC(=O)N1[C@H](C(=O)N[C@@H](CCC(=O)O)C(=O)O)C[C@@H]2CCCC[C@@H]21 (H-Gly-[Oic]-Glu-OH)
2.39 µM | NCC(=O)N1CCCC[C@H]1C(=O)N[C@@H](CCC(=O)O)C(=O)O (H-Gly-[Pip]-Glu-OH)
> 100 µM | CC[C@H](C)[C@H](N)C(=O)N1CCC[C@H]1C(=O)N[C@@H](CCC(=O)O)C(=O)O (H-Ile-Pro-Glu-OH)
22 µM | NCCCC[C@H](N)C(=O)N1CCC[C@H]1C(=O)N[C@@H](CCC(=O)O)C(=O)O (H-Lys-Pro-Glu-OH)
4.85 µM | N[C@@H](Cc1ccccc1)C(=O)N1CCC[C@H]1C(=O)N[C@@H](CCC(=O)O)C(=O)O (H-Phe-Pro-Glu-OH)
19.5 µM | CCCC[C@H](N)C(=O)N1CCC[C@H]1C(=O)N[C@@H](CCC(=O)O)C(=O)O (H-[Nle]-Pro-Glu-OH)

SMILES | Ki
NCC(=O)N1C2CCC1(C(=O)N[C@@H](CCC(=O)O)C(=O)O)CC2 | 0.48 µM
